In brackets after ≈: the same amount, converted by molar mass. Where two headings read alike, the source gives them in different places.
Key:
E. brunetti = test: efficacy against coccidial infection in chickens (lesion scores); conditions: in diet of chickens at 15 to 120 ppm; six days
rumen fluid = test: in vitro rumen technique, propionic acid production; format: cell-based, cow; conditions: 20 micrograms per milliliter, 39° C., about 16 hours, read-out: increase in the production of propionic acid over control solution
Description: The value of animal feeds has generally been determined directly by feeding the animal. British Patent Specification No. 1,197,826 details an in vitro rumen technique whereby the changes occurring in feed brought about by microorganisms are measured more readily and with great accuracy in the evaluation of animal feeds. This technique involves the use of an apparatus in which the digestive processes of the animals are conducted and studied in vitro. The animal feeds, rumen inoculum and various growth promotants are introduced into and withdrawn from a laboratory unit under carefully controlled conditions and the changes taking place are studied critically and progressively during the consumption of the feed by the microorganisms. […] The change in propionic acid content is expressed as percent of the propionic acid content found in the control rumen fluid. Long term in vivo feeding studies are used to show a reliable correlation between propionic acid increase in the rumen fluid and improved animal performance. […]
After incubation, 5 ml. of the sample is mixed with 1 ml. of 25% metaphosphoric acid. […] Samples are then analyzed by gas-liquid chromatography by the method of D. W. Kellog, J. Dairy Science, 52, 1690, 1969. Peak heights for acetic, propionic and butyric acids are determined for samples from untreated and treated incubation flasks.

Eimeria tenella = test: efficacy against coccidial infection in chickens (lesion scores); conditions: in diet of chickens at 15 to 120 ppm; six days
Treponema hyodysenteriae = test: in vitro antibacterial MIC (tube dilution, 24 hours); format: cell-based; conditions: Brachyspira hyodysenteriae
Description: (§1) In Table I, below, the results of in vitro tests are summarized. For this test each organism is inoculated in a series of test tubes containing nutrient medium and varying concentrations of Antibiotic UK No.-61,689 to determine the minimal concentration of the compound in μg./ml. which inhibits the growth of the organism over a period of 24 hours (MIC).

Actinomyces pyogenes = test: as above; format: cell-based
Description: as §1

E. necatrix = test: efficacy against coccidial infection in chickens (lesion scores); conditions: in diet of chickens at 15 to 120 ppm; six days
E. maxima = test: as above; conditions: in diet of chickens at 15 to 120 ppm; six days
E. acervulina = test: as above; conditions: in diet of chickens at 15 to 120 ppm; five days
Clostridium perfringens = test: microbe, parasite or virus in culture; format: cell-based; conditions: 24 h
coccidial infections = test: activity against coccidial infections in poultry (lesion scores); conditions: in diet of chickens

Question: For `COC1CCC(OC2CC(C3OC(C)(O)C(C)CC3C)OC2C2(C)CCC(C3(C)CCC4(CC(O)C(C)C(C(C)C5OC(O)(CC(=O)O)C(C)C(O)C5OC)O4)O3)O2)OC1C` (stereo not shown) [Antibiotic UK No.-61,689], which “controlling infections due to E. brunetti” value (E. brunetti) is on record?
Answer: effective in controlling infections

Question: And the activation at 20 µg/mL (rumen fluid)?
Answer: ~80%

Question: What about the “controlling infections due to Eimeria tenella” value (Eimeria tenella) of the same compound?
Answer: effective in controlling infections

Question: What about the MIC (Treponema hyodysenteriae; strain 94A001) of the same compound?
Answer: 6.25 µg/mL (≈ 7.16 µM)

Question: What about the MIC (Treponema hyodysenteriae; strain 94A002) of the same compound?
Answer: 6.25 µg/mL (≈ 7.16 µM)

Question: What about the MIC (Treponema hyodysenteriae; strain 94A007) of the same compound?
Answer: 3.12 µg/mL (≈ 3.57 µM)

Question: And the MIC (Treponema hyodysenteriae; strain 94A008)?
Answer: 3.12 µg/mL (≈ 3.57 µM)

Question: And the MIC (Actinomyces pyogenes; Trueperella pyogenes, strain 14D002, read-out: MIC)?
Answer: 0.39 µg/mL (≈ 0.447 µM)

Question: And the MIC (Actinomyces pyogenes; strain 14D008)?
Answer: 0.39 µg/mL (≈ 0.447 µM)

Question: And the MIC (Actinomyces pyogenes; strain 14D011)?
Answer: 0.39 µg/mL (≈ 0.447 µM)

Question: And the “controlling infections due to E. necatrix” value (E. necatrix)?
Answer: effective in controlling infections

Question: And the “controlling infections due to E. maxima” value (E. maxima)?
Answer: effective in controlling infections

Question: What about the “controlling infections due to E. acervulina” value (E. acervulina) of the same compound?
Answer: effective in controlling infections

Question: And the MIC (Clostridium perfringens; strain 10A006)?
Answer: 25 µg/mL (≈ 28.6 µM)

Question: What about the MIC (Clostridium perfringens; strain 10A009) of the same compound?
Answer: 3.12 µg/mL (≈ 3.57 µM)

Question: And the “activity against coccidial infections in poultry” value (coccidial infections)?
Answer: excellent activity
